# Several values for one entry are separate records, joined by “and”; a condition that tells them apart may be missing. Equal values may be shown once.
# Legend:
# PARP1–HPF1 complex [1] = target: T1, PARP1–HPF1 complex (Homo sapiens, UniProt P09874+Q9NWY4); test: FP assay of PARP1–HPF1–DNA complex, PARP-directed library screen; assay type: biochemical
# T1 construct: made in house
# Protocol: An Opentrons OT-2 robot was used for all the pipetting steps as described. First, 20 μL of binding buffer was placed into each well of the 384-well assay plate. Next, 10 μL of the pre-formed complex of PARP1 - HPF1 - DNA or PARP2 – HPF1 – DNA (prepared in binding buffer) was added to all wells. Next, 1 μL of the inhibitors from the 12-point dilution were added to the 384-well plate and was incubated with the protein - DNA for 30 min at room temperature (RT). The plate was then transferred to BMG Labtech CLARIOstar plate reader equipped with a syringe injector. The injector was used to add 10 μL of NAD^+ into all wells except for eight control wells. […] Final concentrations were 5 nM p18mer (fluorescein-labeled), 10 nM PARP1/2, 200 nM HPF1, 200 μM NAD^+, and 0.09 μM – 200 μM inhibitor. IC50 values were calculated using a nonlinear regression analysis (sigmoidal dose-response fitting with variable slope) with the following equation: Y = Bottom + (Top – Bottom)/(1 + 10(LOGIC50 – X) · HILL SLOPE) using GraphPad Prism.
# We base our assay method on our previously described fluorescence polarization (FP) assay for measuring the activity of PARP1 [15]. […] (Fig. 2A). For the inhibition assay, the complex is incubated with potential inhibitors and the PARylation reaction is initiated by the addition of NAD^+. […]
# PARP1–HPF1 complex [2] = target: T1, PARP1–HPF1 complex; test: FP assay of PARP1–HPF1–DNA complex, dose response of hits from the 10,000 compound pilot HTS; assay type: biochemical; details: dose response of HTS hits in duplicate; 10 nM PARP1, 100 nM HPF1, 15 min
# Protocol: A Revvity G3 Explorer collaborative robot equipped with a freezer containing the drug library, a Revvity Janus liquid handler, and a Revvity Envision was used to carry out the screen. A ChemBridge diversity library containing 10,000 compounds was used for screening. Two identical daughter plates (2 mM) were generated, one for HTS and one for cherry-picking hits identified from HTS. The drug library was maintained in a LiCONiC STX500-DF Deep Freezer at −20 °C with 80 % N2. Binding buffer (13 μL) with 0.04 % DMSO was added to columns 23 and 24 of 32 384-well plates (Corning 3575). Next, 24.5 μL binding buffer was added to all wells on the plates. Then, 0.5 μL of 2 mM stock solutions for each of the 10,000 compounds was added to separate wells, giving a final concentration of 20 μM, excluding columns 1, 2, 23, and 24. Afterwards, 12.5 μL premix (PARP1 – HPF1 – DNA, at 10 nM PARP1, 100 nM HPF1, and 5 nM FITC-labeled p18mer DNA) was added to all wells. Next, 12.5 μL of 2 mM NAD^+ was added to each well.
# Dose response curves for the hits were performed using the same Revvity robot system as for the initial screen. Binding buffer (13 μL) with 0.04 % DMSO was added to columns 23 and 24 of 32 different Corning (Cat. No. 3575) plates. Next, 25 μL binding buffer was added to all wells on the plates. Cherry-picked compound plates generated from the compound source used in the initial HTS were used to add 1 compound per column from 20 to 160 nM in duplicate with 2x serial dilution using a Revvity FlexDrop iQ instrument. A 12.5 μL premix (PARP1 – HPF1 – DNA, as above) was added to all wells. Afterwards, 12.5 μL of 2 mM NAD^+ was added to each well and plates were incubated for 15 min at RT. The FP signal was read as above, and data for screened compounds was normalized between 100 % (positive control, […]) and 0 % (negative control, rows 1 and 2). Dose response curves were plotted and fit using GraphPad Prism with a non-linear regression analysis as described above.
# SUM149PT tumor organoids = test: Tumor organoid cytotoxicity, CellTiter-Glo 3D; assay type: cell-based; details: Homo sapiens, 96 h, read-out: IC50 tumor organoid viability
# Protocol: SUM149PT cells were plated at 2000 cells/well into 96-well Clear Round Bottom Ultra-Low Attachment plates (Cat. No. 7007, Corning, Corning, NY) in complete growth medium. Cell assay plates were centrifuged at 1000 RPM for 15 min to promote cellular aggregation, then 25 μL of cold Growth-Factor Reduced (GFR) Matrigel (10 %) was added per well for a final concentration of 2 %. […] Briefly, tumor organoids were transferred to 96-well CELLSTAR white solid bottom plates (Cat. No. 655083, Greiner Bio-One, Monroe, NC), 40 μL (1:1) of CellTiter-Glo 3D was added to each well and plates were then placed on an orbital shaker at 450 RPM for 45 min at room temperature. CellTiter-Glo 3D’s luminescence signal was assessed using the Envision microplate reader (Revvity, Waltham, MA) with a measurement time of 100 ms. The experiment was done with triplicate organoids per condition, and IC50.values were calculated as described above.
# [3] = system: PAR in the nucleus of SUM149PT cells; test: PAR immunofluorescence in SUM149PT cells with MMS; assay type: cell-based; details: 10 and 12.5 μM, 5 h, 0.01 % MMS; for amount of PAR in the nucleus: p<0.05 for 145 and 88, p<0.001 for 4
# Protocol: 18,000 SUM149PT cells were seeded into a 96 well PhenoPlate (Revvity) and allowed to adhere overnight. Cells were then treated with the selected hits at a concentration of 10 or 12.5 μM and 0.01 % final concentration of MMS for 5 h. The medium was then aspirated, and cells were fixed with 4 % paraformaldehyde for 15 min at room temperature (RT). After washing twice with PBS, cells were incubated with 0.3 % Triton X-100 for 15 min followed by another washing step. To decrease unspecific binding of the antibodies, cells were blocked in 5 % milk for 30 min at RT. Afterwards, cells were incubated with the anti-PAR primary antibody at a 1:1000 dilution for 2 h at RT. Cells were washed again and incubated with a goat anti-mouse AlexaFluor 647 secondary antibody at a 1:500 dilution for […] at RT. Finally, cells were washed, stained with Hoechst 33342 (1:1000), and imaged using a 40x water objective on the Phenix Plus High-Content Screening (HCS) System (Revvity). Each bar graph is representative of two experiments, each with three replicates of whole-well analysis per condition. The reported data represents the average of each cell within the replicates, plotted with standard deviation error bars.
# cancer cells = system: cancer cells; set-up: method as in PMID 35259019; details: read-out: IC50 cytotoxic activity; cited from earlier work
# T1 sequence (P09874 whole entry): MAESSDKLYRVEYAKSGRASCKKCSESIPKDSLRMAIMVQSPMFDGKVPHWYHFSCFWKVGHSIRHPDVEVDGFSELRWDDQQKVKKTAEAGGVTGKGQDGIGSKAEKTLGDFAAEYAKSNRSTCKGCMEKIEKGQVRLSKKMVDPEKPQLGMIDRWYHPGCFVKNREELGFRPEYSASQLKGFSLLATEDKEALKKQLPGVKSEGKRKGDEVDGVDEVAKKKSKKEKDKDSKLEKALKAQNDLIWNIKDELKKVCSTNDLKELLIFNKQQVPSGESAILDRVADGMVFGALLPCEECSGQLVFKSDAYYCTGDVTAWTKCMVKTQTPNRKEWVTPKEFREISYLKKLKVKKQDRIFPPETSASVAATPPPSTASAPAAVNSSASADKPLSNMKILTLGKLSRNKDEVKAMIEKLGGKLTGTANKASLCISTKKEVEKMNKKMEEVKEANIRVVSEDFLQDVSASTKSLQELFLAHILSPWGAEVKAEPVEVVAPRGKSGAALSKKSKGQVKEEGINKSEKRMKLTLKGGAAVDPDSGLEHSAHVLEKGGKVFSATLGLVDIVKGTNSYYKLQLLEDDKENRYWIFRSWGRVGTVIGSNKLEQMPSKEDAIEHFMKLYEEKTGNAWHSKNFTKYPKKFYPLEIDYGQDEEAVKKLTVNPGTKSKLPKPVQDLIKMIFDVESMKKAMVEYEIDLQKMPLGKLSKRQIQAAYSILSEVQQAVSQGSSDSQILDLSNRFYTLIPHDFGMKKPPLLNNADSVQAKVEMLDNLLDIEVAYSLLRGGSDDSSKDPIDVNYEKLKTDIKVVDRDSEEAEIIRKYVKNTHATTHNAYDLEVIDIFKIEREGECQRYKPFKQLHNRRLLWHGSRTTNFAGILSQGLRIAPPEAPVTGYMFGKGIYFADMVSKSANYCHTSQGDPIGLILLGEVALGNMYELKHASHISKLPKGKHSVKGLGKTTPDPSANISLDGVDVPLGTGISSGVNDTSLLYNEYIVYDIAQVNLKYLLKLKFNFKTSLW
# T1 sequence (Q9NWY4 whole entry): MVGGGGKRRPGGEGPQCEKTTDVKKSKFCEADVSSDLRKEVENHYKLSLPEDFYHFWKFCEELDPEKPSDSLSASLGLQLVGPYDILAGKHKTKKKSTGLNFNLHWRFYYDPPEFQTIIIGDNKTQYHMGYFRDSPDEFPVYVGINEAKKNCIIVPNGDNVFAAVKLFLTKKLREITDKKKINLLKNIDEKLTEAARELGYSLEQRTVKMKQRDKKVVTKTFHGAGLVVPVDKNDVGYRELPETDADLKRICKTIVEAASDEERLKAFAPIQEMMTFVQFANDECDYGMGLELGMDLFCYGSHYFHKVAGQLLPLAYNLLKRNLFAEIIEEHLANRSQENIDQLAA
SMILES,IC50 (PARP1–HPF1 complex [2]),inhibition of PARylation [3],amount of PAR in the nucleus [3],further results
"NC(=O)c1ccccc1 [benzamide, reference compound]",–,–,–,IC50 (PARP1–HPF1 complex [1]): 14 µM
O=C(COc1ccccc1)c1cn(CC(=O)N2CCOCC2)c2ccccc12 [compound 4],~1 µM and 1.07 µM,dose-dependent inhibition of PARylation,reduced PAR at all doses,IC50 (SUM149PT tumor organoids): 251 µM
CCNCC#CCOc1ccc(Br)cc1 [compound 60],7.77 µM,–,–,–
COc1cccc(-c2nc(CC(=O)Nc3ccc(C)c(C)c3)no2)c1 [compound 88],13.5 µM,dose-dependent inhibition of PARylation,decreased the amount of PAR in the nucleus at the higher dose tested,–
CCNCC#CCOc1cccc(C(F)(F)F)c1 [compound 89],13.8 µM,–,–,–
CNCC#CCOc1ccc(Cl)c(C)c1 [compound 110],20.4 µM,–,–,–
CCNC/C=C/COc1ccccc1OCC [compound 116],22.6 µM,–,–,–
N#Cc1c(NC(=O)C#Cc2ccccc2)sc2c1CCC2 [compound 145],36.8 µM,dose-dependent inhibition of PARylation,decreased the amount of PAR in the nucleus at the higher dose tested,–
N#Cc1sc2nc(-c3ccc(F)cc3F)ccc2c1N [compound 151],40.7 µM,–,–,–
"O=C(c1cc(Cc2n[nH]c(=O)c3ccccc23)ccc1F)N1CCN(C(=O)C2CC2)CC1 [olaparib, reference compound]",–,–,–,IC50 (cancer cells): > 50 µM; IC50 (SUM149PT tumor organoids): 85 µM
